“Also recorded” adds a separate entry of the source.
Experiments:
Mnk1/2 [1] = experiment: Q-RT-PCR of p38α target genes FOS and COX-2 in MCF-10A cells; format: cell-based, human; conditions: serum starved, CGP 57380 for 8-10 h, FIG. 7E
Method: (C). RNA from WT MEFs, Mnk2^−/− MEFS and Mnk2^−/− MEFS transduced with Mnk2a was extracted and the levels of FOS and COX-2 were analyzed by Q-RT-PCR. (D). RNA from MCF-10A cells transduced with the indicated Mnk2 isoforms and the indicated Mnk2a mutants was extracted and the levels of FOS and COX-2 were measured as described above. (E). MCF-10A cells were seeded in 10 cm plates. 24 h later, cells were serum starved for an additional 24 h, then treated with Mnk1/2 inhibitor CGP 57380 at the indicated concentrations for 8-10 h. RNA from cells was extracted and the levels of p38α-targets genes; FOS and COX-2 were measured by Q-RT-PCR as described above. (F). MCF-10A cells described in (D) were serum starved for 24 h and then treated with 0.5 μM anisomycin for 24 h and were subjected to trypan-blue exclusion assay (Graph). Bottom panel: cells described in (F) were centrifuged and lysed with Laemmli buffer and proteins were subjected to Western blot analysis. […]
Q-RT-PCR: Total RNA was extracted with Tri reagent (Sigma) and 2 μg of total RNA was reverse transcribed using the AffinityScript (Stratagene) reverse transcriptase. The mRNA levels of FOS, and COX-2 were determined in MCF-10A breast cell lines by performing quantitative PCR with SYBER Green (SYBR® Premix Ex Taq™ # RR041A) using the CFX96 (Bio-Rad) machine. […]

Mnk1/2 [2] = experiment: Western blot of p38-MAPK phosphorylation in MCF-10A cells treated with Mnk1/2 kinase inhibitor; format: cell-based, human; conditions: CGP 57380 for 4 h, FIG. 8G
Method: (A) Cell lines from breast immortal or cancer (MCF-7, MDA-MB-231, SUM-149, SUM-159, MDA-MB-468) cell lines were seeded in 6-well plates and 24 h later were lysed and subjected to Western blot analysis with the indicated antibodies. (B-C) Quantitation of p38 and eIF4E phosphorylation levels. The level of phosphorylated p38 and eIF4E was normalized to that of their total level. Results are presented as an average±SD (n=2). (D-F) Immortal MEFs from WT (Mnk 1/2 WT), Mnk1^−/− or Mnk2^−/− mice were seeded in 6-well plates. 24 h later cells were either treated with the vehicle (DMSO) or treated with the Mnk1/2 kinase inhibitor, CGP 57380 (CGP) at the indicated concentrations for 4 h, and subjected to Western blot analysis with the indicated antibodies. (G) MCF-10A cells were seeded in 6-well plates, treated and analyzed as in (D). […] C-myc (nuclear) and caspase-2 (cytoplasmic) served as fractionation controls.

Mnk1/2 [3] = experiment: Western blot of p38-MAPK phosphorylation in MEFs treated with Mnk1/2 kinase inhibitor; format: cell-based, mouse; conditions: CGP 57380 for 4 h, FIG. 5E
Excerpt: (A) MCF-10A cells were transduced with the indicated retroviruses encoding for Mnk2 isoforms or Mnk2aKD. Total protein from stable pools was extracted and separated on SDS-PAGE and was subjected to Western blot analysis with the indicated antibodies. Numbers represent ratio of p-p38/total p38 normalized to that of pBABE (arbitrarily set at 1)±SD (n=2). (B) MCF-10A cells described in (A) were transduced by H-RAS^V12 and after selection cells were lysed and subjected to Western blot analysis with the indicated antibodies. Numbers representing ratio of p-p38/total p38 were calculated as described in (A) (n=2). (C) Immortal MEFs from Mnk2^−/− mouse were transduced with retrovirus encoding either no mammalian protein (pBABE) or various Mnk2 variants. […] (D) Immortal MEFs from WT, Mnk1^−/− or Mnk2^−/− mice were lysed and analyzed as in (A). (E) Immortal MEFs described in (D) were seeded in 6-well plates. […]
(A) Cell lines from breast immortal or cancer (MCF-7, MDA-MB-231, SUM-149, SUM-159, MDA-MB-468) cell lines were seeded in 6-well plates and 24 h later were lysed and subjected to Western blot analysis with the indicated antibodies. (B-C) Quantitation of p38 and eIF4E phosphorylation levels. […] (G) MCF-10A cells were seeded in 6-well plates, treated and analyzed as in (D). […]

Panc-1 cells = experiment: Anisomycin-induced cell death of Panc-1 cells expressing Mnk2a, with or without p38 inhibitor; format: cell-based, human; conditions: Panc-1, 0.5 μM anisomycin, 20 μM SB203580, FIG. 5J
Method: After selection with hygromycin transductants were maintained in growth factor-free medium in suspension for 48 h. Cell death was measured using the trypan blue exclusion assay. (J) Human pancreatic cancer cells Panc-1 were seeded on 96-well plates (6000 cells/well). Following starvation cells were treated with 0.5 μM anisomycin in the presence or absence of 20 μM SB203580. (*, **p≦0.01). (K) MCF-10A cells were transduced as in (I). After selection cells were seeded in 6-well plates. 24 h later cells were serum starved in a growth factor-free medium for 24 h. Following starvation cells were treated with 0.5 M Sorbitol (to induce osmotic shock) and 24 h later were stained with trypan blue (n=2). (L) MCF-10A transduced with the indicated retroviruses encoding for shRNAs against Mnk2a were seeded as in (K). (*, p≦0.01, ** p≦0.05). […] 10 days post selection with hygromycin cells were assessed for colony formation with methylene blue staining. n=3. […]
Survival and apoptosis assays: MCF-10A or Panc-1 cells were transduced with the indicated retroviruses. […] Cells were fixed and stained with methylene blue and the absorbance at 650 nm of the acid-extracted stain was measured on a plate reader (BioRad) and was normalized to cell absorbance at “Time 0”. […] 10 μl of the cell suspension was mixed with 10 μl of 4% trypan blue solution and live/dead cells were counted in Bio-Rad TC-10 Automated Cell Counter. […]

p38 = conditions: MCF-10A, 1 μM anisomycin, 10 μM SB203580, FIG. 4E
Method: (E) MCF-10A cells transduced with retroviruses containing the indicated Mnk2 isoforms or a kinase dead version of Mnk2a (Mnk2aKD) or with isoform specific shRNAs against Mnk2a were treated with 1 μM anisomycin, in the presence or absence of 10 μM SB203580. Cells were lysed and proteins were subjected to Western blot analysis with the indicated antibodies.
Immunoblotting: Cells were lysed in Laemmli buffer and analyzed for total protein concentration as described previously (17). 30 μg of total protein from each cell lysate was separated by SDS-PAGE and transferred to a nitrocellulose membrane. The membranes were blocked, probed with antibodies and detected using enhanced chemiluminescence. Primary antibodies were anti phospho-eIF4E Ser209 (1:1000), eIF4E (1:1000), phospho-p38 (Thr180/Tyr182) (1:1000), phospho-MNK (T197/T202) (1:1000), phospho-MK2 (1:1,000), MK2 (1:1,000), (Cell Signaling Technology). […] Secondary antibodies were HRP-conjugated goat anti-mouse, goat anti-rabbit or donkey anti-goat IgG (H+L) (1:10,000, Jackson Laboratories).

MCF-10A cells [4] = experiment: Cell death induced by constitutively active p38α in MCF-10A cells expressing Mnk2a; format: cell-based, human; conditions: 20 μM SB203580 for 48 hours, FIGS. 4A-B
Excerpt: (§1) (C-D). […] (*, **, ***p≦0.01n=3).

MCF-10A cells [5] = experiment: Soft agar colony formation of MCF-10A cells co-transduced with Mnk2a and oncogenic Ras; format: cell-based, human; conditions: H-RAS V12, colonies counted 14 days later, FIGS. 4F-G
Method: as §1
Anchorage-independent growth: Colony formation in soft agar was assayed as described previously (17). Plates were incubated at 37° C. and 5% CO2. After 10-18 days, colonies were counted from ten different fields in each of two wells for each transductant pool and the average number of colonies per well was calculated. The colonies were stained and photographed under a light microscope at 100× magnification.

Mnk2 splicing = experiment: RT-PCR of Mnk2 splicing after PNA treatment; format: cell-based, human; conditions: Ras-transformed MCF-10A cells, FIG. 36C
Method: (§2) FIGS. 36A-C. […] Ras-transformed MCF-10A cells were incubated for 5 hours with 0.05 μM scrambled (non-specific) PNA or MNK2a specific PNA (see the position of the PNA marked in red in the scheme). 24 h later cells were counted and seeded in low density (20 cells/well) in 6-well plates. 14 days later, surviving colonies were counted and photographed.
RT-PCR: Total RNA was extracted with Tri reagent (Sigma) and 2 μg of total RNA was reverse transcribed using the AffinityScript (Stratagene) reverse transcriptase. PCR was performed on 1/10 (2 μl) of the cDNA, in 50 μl reactions containing 0.2 mM dNTP mix, 10×PCR buffer with 15 mM MgCl2 (ABI), 2.5 units of TaqGold (ABI) and 0.2 […]; 5% (v/v) DMSO was included in some reactions. PCR conditions were 95° C. for 5 min, then 33 cycles of 94° C. for 30 s, 57° C. for 30 s and 72° C. for 45 s, followed by 10 min at 72° C. PCR products were separated on 1.5% or 2% agarose gels. Primers are listed herein below.

[6] = test system: Ras-transformed MCF-10A breast cells; experiment: Colony survival of Ras-transformed MCF-10A cells after PNA incubation; format: cell-based, human; conditions: 0.05 μM PNA for 5 hours, seeded 20 cells/well, colonies counted 14 days later, versus scrambled PNA
Method: as §2

Nc1ncnc2n[nH]c(Nc3ccc(F)cc3)c12 [CGP 57380]
expression of p38-MAPK target genes (FOS, COX-2) (Mnk1/2 [1]): reduced the expression p38-MAPK target genes
p38-MAPK phosphorylation in MCF-10A cells (Mnk1/2 [2]): reduced p38-MAPK phosphorylation
p38 phosphorylation in Mnk2-/- MEFs (Mnk1/2 [3]; Mnk2-/- MEFs, FIG. 8D-F): could not be further reduced
p38-MAPK phosphorylation (T180, Y182) in WT and Mnk1-/- MEFs (Mnk1/2 [3]; WT and Mnk1-/- MEFs): reduced p38-MAPK phosphorylation

C[S+]([O-])c1ccc(-c2nc(-c3ccncc3)c(-c3ccc(F)cc3)[nH]2)cc1 (stereo not shown) [SB203580]
anisomycin-induced cell death of cells expressing Mnk2a (Panc-1 cells): partially rescued; also recorded: rescued Panc-1 cells from Mnk2a-induced sensitivity to anisomycin treatment
p38 activity measured by phosphorylation of its substrate MK-2 (p38): efficiently inhibited p38 activity
cell death upon active p38-MAPK transduction in cells expressing Mnk2a (MCF-10A cells [4]): inhibited by SB203580
colony formation in soft agar of cells co-transduced with Mnk2a and Ras (MCF-10A cells [5]): rescued the ability of cells co-transduced with Mnk2a and Ras to form colonies in soft agar

PNA: PNA based molecule hybridizing to the bridging region between exon 14b and the preceding intron, preventing Mnk2b generation; likely SEQ ID NO: 157 (AGACTTCCACCCTGTCAG; PNA modified oligonucleotide, pattern not given here)
Mnk2 splicing (Mnk2a level) by RT-PCR (Mnk2 splicing): can modulate Mnk2 splicing to elevate Mnk2a
survival of Ras-transformed MCF-10A breast cells (surviving colonies) [6]: reduces survival; also recorded: decreased the survival

From patent US9745581B2, “Methods of treating and diagnosing diseases using agents that regulate the alternative splicing pathway” (Yissum Research Development Company of the Hebrew …, priority 2012, dated 2017)
